Source: patent US20240207422A1, “NERVE TARGETING PEPTIDE CONJUGATES AND METHODS OF USE” (Alume Biosciences, Inc., priority 2022, published 2024)

Each substance was assayed on human nerve extract (assay: Phage display selection on plates coated with human nerve extract (Plated Nerve2), NextGen sequence counts). Conditions: unique sequence count (relative enrichment); Plated Nerve2 only.
Format: binding
Procedure: Several m13 phage libraries were constructed expressing randomized variants of a parent peptide (QVPWEEPYYVVKKS-SGGL; SEQ ID NO: 576). In particular, the first 14 amino acids of the parent peptide were randomized using degenerate oligonucleotide synthesis to obtain a diverse set of peptides with a mutation rate of about 50% per residue.
To accomplish this, synthesis was carried out by the XXK codon design approach, where X is any base and K is G or T. To bias synthesis towards the parent sequence, synthesis was carried out at each X position with a mixture of about 70%-85% of the parent nucleotide and 15-30% of the remaining 3 nucleotides. The resulting molecules were inserted into fADL-1e (Antibody Design Laboratories), which is a type 3 phage display vector having a cloning site on the N-terminal side of the full-length gene III protein. The fusion proteins are directed to the periplasm by the PelB leader peptide, which is inserted in the vector […].
Collectively, the phage display libraries used in the screens comprised about 600 million peptides, with sequencing analysis confirming a mutation rate of about 50% per residue.
Phage libraries were independently processed, as follows, with five biological samples: two independent samples of excised human nerve tissue, one sample of a human nerve extract, and two independent samples of human muscle tissue, as follows:
Human Nerve Extracts: Phage libraries were incubated for up to 24 hours at 4° C. in 96 well plates that had been coated with a human nerve extract. Plates were then washed with PBS and phage were eluted using 0.2M glycine pH 2.0. Phage supernatants where then neutralized with Tris pH 9.0 prior to plating on TG1 bacteria and LB agar plates. Colonies were counted to determine titer followed by DNA preparation of pools of phage and NextGen sequencing. After rounds of selection, phage were pooled and amplified for iterative selection. Phage that eluted by 0.2M glycine pH 2.0 (the nerve binders) at each round were sequenced. NextGen sequencing of pools after 2, 3 and 4 rounds of selection were used to isolate candidate sequences that were further analyzed using bioinformatics.
NextGen sequencing of pools after 2, 3 and 4 rounds of selection were used to isolate candidate sequences from each of the five samples. These five data sets were then analyzed as described in the next section.
Peptide and vector sequences were translated starting at the first start codon in the nucleotide sequence. […] Trimmed peptides with identical sequences were combined and quantified according to their frequency (count).
Following processing, an R script was written to merge the unique peptide sequences (with counts 6 or greater) from the 5 different data sets to analyze the overlap between nerve and muscle binding activity.
For the single Nerve2, Nerve3, and Plated Nerve2 (pn2) subsets, the number of counts for each group was set at a threshold giving rise to at least 100 peptides. […] As highlighted in yellow in FIG. 1B, the representative group also included 6 unique peptides overlapping between nerve2 and nerve3, 200 unique peptides overlapping between nerve2 and plated nerve2 (at least 60 counts), 4 unique peptides overlapping between nerve3 and plated nerve2. Finally, as highlighted in green in FIG. 1B, the representative group also included […] common to the nerve2, nerve3, and plated nerve2 sets.
542 (QLPGAEAQNVVKYS) [compound 542] showed a Count of 37. Substance 543 (QLRFDEHHSVVTHS) [compound 543] has a Count of 37. 544 (QYPWEQRYYFERKS) [compound 544] gave a Count of 37. With 545 (RVTWEGPYNSVKKS) [compound 545] the Count was 37. With 546 (DVALGESHYNVKKY) [compound 546] the Count was 36. 547 (DVPNDLPSYLVKNS) [compound 547] showed a Count of 36. 548 (EFPYQESEYIVKQS) [compound 548] showed a Count of 36. 549 (GLPSKEPYYVVKPA) [compound 549] showed a Count of 36. 550 (HVPWDDQYYVWRTN) [compound 550] gave a Count of 36. 551 (HVQWDQTSYVVKNS) [compound 551] showed a Count of 36. 552 (HVTSDDSYYAVKNP) [compound 552] showed a Count of 36. Work on 553 (QDPFGDLYYVTKMS) [compound 553] yielded a Count of 36. In the case of 554 (QFPYDEPYNVVKKS) [compound 554], the Count is reported as 36. For 555 (QHPWKEQYYMATKP) [compound 555], the Count was 36. 556 (QLNSEEPYYHFKNY) [compound 556] was tested, and the Count was 36. In the case of 557 (QLPTNDPYYVLMES) [compound 557], the Count is reported as 36.
